Measurements from patent US20070276011A1, “Plasminogen Activator Inhibitor-1 Inhibitor” (priority 2003, published 2007).

Target: recombinant human PAI-1 (Homo sapiens, UniProt P05121)
Experiment: PAI-1 inhibitory activity, Test Method A (tPA fluorogenic substrate, Tris buffer pH8.0, 37 C)
Format: biochemical
Settings: 25 μM test compound; Test Method A

Chain of recombinant human PAI-1 (P05121 24-402): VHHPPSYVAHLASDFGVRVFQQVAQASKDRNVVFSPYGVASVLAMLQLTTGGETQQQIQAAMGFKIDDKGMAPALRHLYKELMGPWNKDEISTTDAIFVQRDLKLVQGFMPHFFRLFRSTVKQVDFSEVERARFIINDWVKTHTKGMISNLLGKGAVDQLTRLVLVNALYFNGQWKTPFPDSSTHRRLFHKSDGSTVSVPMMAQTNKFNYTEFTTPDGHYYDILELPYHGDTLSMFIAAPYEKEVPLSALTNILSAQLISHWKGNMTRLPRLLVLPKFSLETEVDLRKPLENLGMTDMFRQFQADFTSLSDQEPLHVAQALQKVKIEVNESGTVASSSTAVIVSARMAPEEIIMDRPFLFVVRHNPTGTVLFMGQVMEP

Row | Compound | Inhibitory Ratio at 25 μM (%)
1 | COC(=O)c1ccc(NC(=O)c2cc(C=C3SC(=O)N(Cc4ccc(Cl)c(Cl)c4)C3=O)ccc2O)cc1OC [compound 405, 5-{4-hydroxy-3-[3-methoxy-4-(methoxycarbonyl)phenylcarbamoyl]-benzylidene}-3-(3,4-dichlorobenzyl)thiazolidine-2,4-dione] | 55
2 | O=C(Nc1ccc(O)c(O)c1)c1cc(C=C2SC(=O)N(Cc3cc(Cl)cc(Cl)c3)C2=O)ccc1O [compound 396] | 95
3 | O=C(Nc1cccc2c1OC(F)(F)O2)c1cc(C=C2SC(=O)N(Cc3ccc(Cl)c(Cl)c3)C2=O)ccc1O [compound 460] | 57
4 | O=C(Nc1ccc2c(c1)OCO2)c1cc(C=C2SC(=O)N(Cc3ccc(Cl)c(Cl)c3)C2=O)ccc1O [compound 428] | 86
5 | O=C(Nc1ccc(O)c(O)c1)c1cccc(C=C2SC(=O)N(Cc3ccc(Cl)c(Cl)c3)C2=O)c1 [compound 388, 5-[3-(3,4-Dihydroxyphenylcarbamoyl)benzylidene]-3-(3,4-dichlorobenzyl)thiazolidine-2,4-dione] | 65
6 | CCOC1=NN(c2ccc([N+](=O)[O-])cc2)C(=O)C1=Cc1cc(O)c(O)cc1Br [compound 557, 4-(2-Bromo-4,5-dihydroxybenzylidene)-1-(4-nitrophenyl)-3-ethoxy-2-pyrazolin-5-one] | 82
7 | O=C(Nc1ccc(Cl)nc1)c1cc(C=C2SC(=O)N(Cc3ccc(C(F)(F)F)cc3)C2=O)ccc1O [compound 392] | >99
8 | O=C1SC(=Cc2ccc(O)c(O)c2)C(=O)N1Cc1cnc(Cl)c(Cl)c1 [compound 304, 5-(3,4-Dihydroxybenzylidene)-3-[(5,6-dichloropyridin-3-yl)-methyl]thiazolidine-2,4-dione] | >99
9 | COc1ccc(COC(=O)c2cc(C=C3SC(=O)N(Cc4ccc(-c5ccccc5)cc4)C3=O)ccc2O)cc1 [compound 362, 5-[3-(4-Methoxybenzyloxycarbonyl)-4-hydroxybenzylidene]-3-(4-phenylbenzyl)thiazolidine-2,4-dione] | >99
10 | O=C(Nc1ccc(O)c(O)c1)c1cc(C=C2SC(=O)N(Cc3ccc(Cl)cc3Cl)C2=O)ccc1O [compound 398] | >99
11 | COc1cc(C=C2SC(=O)N(Cc3ccc(Cl)c(Cl)c3)C2=O)cc(C(=O)Nc2ccc(O)c(C)c2)c1O [compound 361] | >99
12 | O=C(O)c1ccc(CN2C(=O)SC(=Cc3ccc(O)c(C(=O)Nc4ccc(Cl)c(Cl)c4)c3)C2=O)cc1 [compound 418] | 80
13 | COCC1=NN(c2cc(Cl)cc(Cl)c2)C(=O)C1=Cc1ccccc1O [compound 523] | >99
14 | O=C1SC(=Cc2ccc(O)c(O)c2)C(=O)N1Cc1ccc(Nc2ccccc2)cc1 [compound 302, 5-(3,4-Dihydroxybenzylidene)-3-[4-(phenylamino)benzyl]thiazolidine-2,4-dione] | >99
15 | CCOC(=O)Oc1cc(C=C2SC(=O)N(Cc3ccc(Cl)c(Cl)c3)C2=O)cc(OC(=O)OCC)c1OC(=O)OCC [compound 340] | 56
16 | O=C1SC(=Cc2ccc(Cl)c(O)c2)C(=O)N1Cc1ccc(Cl)c(Cl)c1 [compound 328] | 63
17 | COc1ccc(C(C)(C)C)cc1NC(=O)c1cc(C=C2SC(=O)N(Cc3ccc(Cl)c(Cl)c3)C2=O)ccc1O [compound 467] | >99
18 | O=C(Nc1cc(F)ccc1F)c1cc(C=C2SC(=O)N(Cc3ccc(Cl)c(Cl)c3)C2=O)ccc1O [compound 465] | 69
19 | COCC1=NN(c2ccc([N+](=O)[O-])cc2)C(=O)C1=Cc1cc(C=Cc2ccccc2)ccc1O [compound 538, 4-(2-Hydroxy-5-styrylbenzylidene)-1-(4-nitrophenyl)-3-methoxymethyl-2-pyrazolin-5-one] | >99
20 | COc1ccc(NC(=O)c2cc(C=C3SC(=O)N(Cc4cc(C(F)(F)F)ccc4C(F)(F)F)C3=O)ccc2O)cc1OC [compound 372, 5-[4-Hydroxy-3-(3,4-dimethoxyphenylcarbamoyl)benzylidene]-3-[2,5-bis(trifluoromethyl)benzyl]thiazolidine-2,4-dione] | >99

Same assay, conditions: test compound 25 μM; Test Method A

Row | Compound | Inhibitory Ratio at 25 μM (%)
21 | CC1=NN(c2ccccc2)C(=O)C1=Cc1ccc(-c2cc(C(=O)O)ccc2Cl)o1 [compound 163] | 54
22 | O=C1C(=Cc2cc(Cl)ccc2O)SC(=S)N1c1ccccc1 [compound 65] | 21
23 | CC1=NN(c2cccc(C(=O)O)c2)C(=O)C1=Cc1ccc(-c2ccc(C)c(Cl)c2)o1 [compound 187] | 54
24 | O=C1SC(=Cc2cccc(O)c2O)C(=O)N1CCc1ccc(Cl)cc1 [compound 90, 5-(2,3-Dihydroxybenzylidene)-3-[2-(4-chlorophenyl)ethyl]thiazolidine-2,4-dione] | >99
25 | CCOc1cc(C=C2C(=O)N(c3cccc(C(=O)O)c3)N=C2C)ccc1OC(=O)c1cccs1 [compound 103] | >99
26 | O=C1C(=Cc2ccc(-c3cc([N+](=O)[O-])ccc3O)o2)C(O)=NN1c1cccc(Cl)c1 [compound 165] | 29
27 | Cc1cc(C)cc(CN2C(=O)SC(=Cc3ccc(O)c(O)c3)C2=O)c1 [compound 27] | >99
28 | O=C1SC(=Cc2cccc(O)c2O)C(=O)N1Cc1cccc(Oc2ccccc2)c1 [compound 16, 5-(2,3-Dihydroxybenzylidene)-3-(3-phenoxybenzyl)thiazolidine-2,4-dione] | >99
29 | CC(C)C1=NN(c2cc(Cl)cc(Cl)c2)C(=O)C1=Cc1ccc(Cl)c([N+](=O)[O-])c1 [compound 206] | 94
30 | O=C1SC(=Cc2ccc([N+](=O)[O-])c(O)c2)C(=O)N1Cc1ccc(Cl)c(Cl)c1 [compound 87, 5-(3-hydroxy-4-nitrobenzylidene)-3-(3,4-dichlorobenzyl)-thiazolidine-2,4-dione] | >99
31 | O=C1SC(=Cc2ccc(O)c(O)c2)C(=O)N1Cc1cc(C(F)(F)F)cc(C(F)(F)F)c1 [compound 4] | >99
32 | COc1cccc(N2N=C(C(C)C)C(=Cc3ccc(O)c(O)c3)C2=O)c1 [compound 126] | 44
33 | O=C1SC(=Cc2ccc(O)c(O)c2)C(=O)N1Cc1cc(F)cc(F)c1 [compound 25] | >99
34 | CC(=O)Nc1ccc(C=C2SC(=O)N(Cc3ccc(Cl)c(Cl)c3)C2=O)cc1 [compound 79, 5-[4-(acetamido)benzylidene]-3-(3,4-dichlorobenzyl)-thiazolidine-2,4-dione] | 65
35 | COC(=O)c1cccc(N2N=C(C(F)(F)F)C(=Cc3ccc(-c4cc(Cl)cc(Cl)c4)s3)C2=O)c1 [compound 181] | 23
36 | CC(C)C1=NN(c2cc(Cl)cc(Cl)c2)C(=O)C1=Cc1ccc(O)c(C(=O)O)c1 [compound 106] | >99
37 | O=C1SC(=Cc2cccc(O)c2O)C(=O)N1Cc1ccc([N+](=O)[O-])cc1 [compound 51, 5-(2,3-dihydroxybenzylidene)-3-(4-nitrobenzyl)thiazolidine-2,4-dione] | 86
